Here are results for 4 compounds from PMC8940841, “A metabolically stable PET tracer for imaging synaptic vesicle protein 2A: synthesis and preclinical characterization of [^18F]SDM-16” (European Journal of Nuclear Medicine and Molecular Imaging, 2021).

Read-outs that look alike come from different tables or passages of the source.

For data set [1], the target named is T1, SV2A (Macaca mulatta, UniProt H9EQH8). As to the kind of experiment: LEV blocking and displacement PET scans, Lassen plot. The format is in vivo, rhesus monkeys (Macaca mulatta). On the set-up: from tissue; host or cells: brain of living rhesus monkeys (in vivo PET). As to conditions: LEV 30 mg/kg i.v., Lassen plot with [^18F]SDM-16. The source says:
(§1) Four monkeys were studied.
To examine the in vivo binding specificity, SV2A occupancy, and the extent of nonspecific binding in the monkey brain, we performed the Lassen plot analysis using data from the two baseline scans and one blocking scan in the same monkey.

A short description of data set [2]: Adverse event observation during PET imaging. In kind it is in vivo, rhesus monkeys. As to conditions: tracer at microdose 0.646–0.926 µg; LEV i.v. 30 mg/kg. As to the method: as §1
Adverse event was also not observed following LEV (i.v., 30 mg/kg) administration, including the displacement and blocking scan.

Data set [3] has as its target T2, human SV2A (Homo sapiens, UniProt Q7L0J3). Further details: Duplicate samples of human frontal cortex gray matter were homogenized in PBS buffer; from tissue; host or cells: human frontal cortex gray matter homogenate. As to conditions: other SV2A ligands; cited from earlier work.
For data set [4], the target named is T2, human SV2A. Kind of data set: biochemical. The protocol: Competition binding assays were performed twice independently using separate assay materials, with 4 technical replicates from each independent assay. […] Duplicate samples of human frontal cortex gray matter were homogenized in PBS buffer (10 mg/mL) for storage at − 80 °C and were diluted to a stock concentration of 4 mg/mL in PBS on the day of the assays. […] Working stocks of brain homogenate (100 µL; final concentration of 2 mg/mL), blocking ligands (20 µL), and radioligand (80 µL; final concentration 2.5 nM) were combined in quadruplicate wells of 96-well plates, sealed, and incubated at room temperature for 90 min on an orbital shaker set to 250 RPM. Reaction plates were filtered, rapidly washed with cold PBS, and dried. Forty microliters of Microscint-20 scintillation cocktail (Perkin-Elmer) was added to each well, and the plate was counted using a Microbeta2 plate reader (Perkin-Elmer). GraphPad Prism was used for curve fitting using the one-site Ki model.

Data set [5] can be described thus: Plasma free fraction (fp) by ultrafiltration. The settings on record: monkey, plasma (separated from spiked whole blood). The format is in vitro ADME, rhesus monkey. As to the method: The unbound fraction of [^18F]SDM-16 in plasma (fp) of rhesus monkey was measured in triplicate using the ultrafiltration method. Briefly, [^18F]SDM-16 solution was added to 3 mL of whole blood. After incubation at ambient temperature for 5 min, the blood sample was centrifuged at 3900 rpm for 5 min. A sample of the supernatant plasma (0.3 mL) was loaded onto the reservoir of a Centrifree® Ultrafiltration device (Merck Millipore Ltd. Tullagreen, Carrigtwohill, Co. Cork, IRELAND) in triplicate and centrifuged at 1228 g for 20 min. The fp value was calculated as the ratio of radioactivity in the filtrate to that in the plasma.

The nature of data set [6]: Free base fraction in plasma by modified Henderson-Hasselbalch equation (Eq. 1). The settings on record: Eq. 1, plasma pH 7.4.
The nature of data set [7]: Plasma radiometabolite analysis during PET scans. The format is in vivo, rhesus monkeys. The settings on record: 30 min p.i. The protocol: Arterial blood samples were collected during the PET scans to measure the radioactivity in plasma for generation of the metabolite-corrected arterial plasma input function. Plasma radiometabolite analysis was performed using the column-switching method, following a published protocol. Briefly, arterial blood samples were collected at 3-, 8-, 15-, 30-, 60-, 90-, 120-, and 180-min post-injection (p. i.), treated with urea (8 M), filtered, and injected onto a self-packed short column (4.6 × 19 mm) eluting with 1% MeCN in water at a flow rate of 2 mL/min. The sample was then back flushed onto a Gemini-NX column (5 μm, 4.6 mm × 250 mm) eluting with 40% MeCN/60% 0.1 M ammonium formate (pH 6.4) at a flow rate of 1.2 mL/min. The eluent was fraction-collected using an automated spectrum chromatography CF-1 fraction collector. Activity in the whole blood, plasma, filtrated plasma-urea mix, filters, and HPLC fractions were counted with automatic gamma well-counter (Wizard 2, PerkinElmer). The sample recovery rate, extraction efficiency, and HPLC fraction recovery were monitored. The unmetabolized [^18F]SDM-16 parent fraction was determined as the ratio of the sum of radioactivity in fractions containing the parent compound to the total amount of radioactivity collected and fitted with inverted Gamma4 approaches.
[^18F]SDM-16 had higher metabolite-corrected plasma SUV than the other SV2A radiotracers, indicating slower plasma clearance and higher metabolic stability (Fig. 2a). Whole-blood and plasma-input functions were highly consistent between the two animals, with a stable plasma to whole-blood ratio of 0.93 ± 0.13 over the entire 180-min acquisition period (Fig. S1).

Data set [8] has as its system SV2A. As to the kind of experiment: Brain PET imaging with 1TC kinetic modeling. As to conditions: for VT (baseline): 1TC.
Protocol: A total of 10 PET imaging experiments with [^18F]SDM-16 were performed in rhesus monkeys (Macaca mulatta) according to a protocol approved by the Yale University Institutional Animal Care and Use Committee (IACUC). Four monkeys were studied. […] Body temperature was maintained by a water-jacket heating pad. The animal was attached to a physiological monitor, and vital signs (heart rate, blood pressure, respirations, SPO2, EKG, ETCO2, and body temperature) were continuously monitored. A venous line was inserted in one limb for administration of radiotracer, displacement, and blocking drugs. A catheter was placed in the femoral artery in the other limb for blood sampling. Dynamic PET brain scans were performed on a Focus 220 system (Siemens Medical Solutions, Knoxville, TN, USA) with a reconstructed image resolution of approximately 1.5 mm. After a 9-min transmission scan, the radioligand was injected i.v. over 3 min. by an infusion pump. Dynamic PET scans were performed for 3 h (baseline and blocking scans) or 4 h (displacement scan).
PET images were reconstructed with built-in corrections for attenuation, normalization, scatter, randoms, and deadtime. PET brain images were registered to the animal’s MR image, which was subsequently registered to a brain atlas to define the regions of interest. Dynamic images were reconstructed using a Fourier rebinning and filtered back projection algorithm. A rhesus monkey brain atlas was used for generation of regions of interest (ROIs) and time − activity curves (TACs) for the following ROIs: amygdala, brain stem, caudate nucleus, centrum semiovale (CS), cerebellum, cingulate cortex, frontal cortex, globus pallidus, hippocampus, insula, nucleus accumbens, occipital cortex, pons, putamen, substantia nigra, temporal cortex, and thalamus.
Volume of distribution (VT, mL·cm^−3) values and the first-order kinetic rate constants of tracer (K1) were derived through 1-tissue (1T) compartment kinetic modeling with the metabolite-corrected arterial plasma input function, which was calculated as the product of the fitted total plasma curve and the parent radiotracer fraction curve. Nondisplaceable volume of distribution (VND) and SV2A occupancy by LEV was calculated using the Lassen plot [32]. Nondisplaceable binding potential (BPND) values were calculated from VT values using CS as reference region, or the VND derived from the blocking study, i.e., BPND = (VT, ROI − VT, CS)/ VT, CS or BPND = (VT/VND) -1.
Data set [9] can be described thus: Measurement of lipophilicity (octanol / PBS pH 7.4). As to conditions: for logP: octanol/PBS pH 7.4. The format is physicochemical. As to the method:
The logP of [^18F]SDM-16 was determined by a method modified from previously published procedures. Briefly, an aliquot of […] (10 µCi) of the radioligand was added to a 2-mL microtube containing 0.8 mL of octanol and 0.8 mL of 1 × phosphate buffered saline (1 × PBS, pH 7.4). The mixture was vortexed for 30 s and then centrifuged at 2000 g for 2 min. A subsample of the octanol (0.1 mL) and 1 × PBS (0.5 mL) layers was evaluated with a gamma counter. The major portion of the octanol layer (0.5 mL) was diluted with another 0.3 mL of octanol, mixed with a fresh portion of 0.8 mL of PBS, vortexed, centrifuged, and analyzed as described above. This process was repeated until consistent log P values were obtained, with five consecutive equilibration procedures being performed for each logP measurement. Four separate measurements were performed for [^18F]SDM-16 on different days.

On the set-up of data set [10]: method as in PMID 33826008. The settings on record: 30 min p.i.; cited from earlier work.
For data set [11] the following is noted: estimated from human; cited from earlier work.
Data set [12] concerns the target T1, SV2A. As to conditions: previously determined; cited from earlier work.
For data set [13], the system named is SV2A. The settings on record: calculated from K1/k2 using 2TCM-c; cited from earlier work.

T1 sequence (H9EQH8 1-742): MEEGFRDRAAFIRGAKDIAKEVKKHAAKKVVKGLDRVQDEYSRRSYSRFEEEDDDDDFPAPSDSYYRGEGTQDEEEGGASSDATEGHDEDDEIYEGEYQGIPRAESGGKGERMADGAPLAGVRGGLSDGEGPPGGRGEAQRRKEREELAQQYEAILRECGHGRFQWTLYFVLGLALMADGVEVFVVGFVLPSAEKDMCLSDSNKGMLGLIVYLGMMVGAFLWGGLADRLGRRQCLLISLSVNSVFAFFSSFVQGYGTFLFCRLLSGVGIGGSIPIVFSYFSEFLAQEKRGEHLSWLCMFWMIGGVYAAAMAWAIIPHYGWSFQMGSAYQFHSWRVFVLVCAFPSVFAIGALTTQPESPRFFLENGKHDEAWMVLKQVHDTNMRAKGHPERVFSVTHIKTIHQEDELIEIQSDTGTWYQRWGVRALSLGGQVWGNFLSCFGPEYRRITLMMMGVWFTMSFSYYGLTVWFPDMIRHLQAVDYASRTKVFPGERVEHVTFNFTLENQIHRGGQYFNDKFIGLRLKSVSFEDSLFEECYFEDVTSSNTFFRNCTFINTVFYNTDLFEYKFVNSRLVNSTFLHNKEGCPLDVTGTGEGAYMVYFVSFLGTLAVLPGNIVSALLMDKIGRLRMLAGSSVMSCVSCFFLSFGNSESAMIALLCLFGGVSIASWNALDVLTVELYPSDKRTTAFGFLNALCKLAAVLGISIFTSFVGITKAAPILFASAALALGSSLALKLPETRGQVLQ
T2 sequence (Q7L0J3 whole entry): as the sequence (H9EQH8 1-742) above, with S64G, V572I counted along it

The Ki is the dissociation constant of the complex between target and ligand, obtained from inhibition or displacement. With `CC[C@@H](C(N)=O)N1CCCC1=O` [Levetiracetam, levetiracetam, reference compound], the SV2A occupancy in [1] amounted to 79%. The adverse events result in data set [2] is recorded as “not observed”. Besides, the Ki in [3] was 2100 nM.

Take `Cc1nccn1CN1C[C@@H](c2cc(F)cc(F)c2)CC1=O` [SDM-16]: in data set [2], the adverse events entry is “no adverse events were observed”. The affinity in data set [4] corresponds to a Ki of 0.9 nM.

As usually defined, the fraction unbound is free concentration divided by total concentration. A lower fraction unbound goes with extensive binding. What is called logD is the decadic logarithm of the distribution of all forms, ionised or not, between an organic phase and buffer at a given pH. Read a low logD as a more hydrophilic compound. One may read the logP as a log measure of how a compound divides between an organic and an aqueous phase. Low readings indicate a more hydrophilic compound, high ones a more lipophilic compound. In data set [5], `[11CH3]n1cncc1CN1C[C@@H](c2cc(F)cc(F)c2)CC1=O` [[^11C]UCB-A] came in with a fraction unbound at 5 min of 0.75. In [6], the “fraction present in plasma as free base” value is 49%. In addition, the “parent fraction in plasma” value in data set [7] turned out to be 70 ± 7%. For the same compound, the K1 was 0.11 ± 0.01 mL/cm^3 per min in data set [8] (Amygdala); 0.15 ± 0.03 mL/cm^3 per min in data set [8] (Anterior cingulate); 0.15 ± 0.03 mL/cm^3 per min in data set [8] (Brainstem); 0.13 ± 0.02 mL/cm^3 per min in [8] (Caudate); 0.17 ± 0.03 mL/cm^3 per min in data set [8] (Cerebellum); 0.17 ± 0.034 mL/cm^3 per min in [8] (Cingulate cortex). The K1 is 0.15 ± 0.03 mL/cm^3 per min in [8] (Frontal cortex); 0.10 ± 0.01 mL/cm^3 per min in data set [8] (Globus pallidus); 0.12 ± 0.02 mL/cm^3 per min in data set [8] (Hippocampus); 0.15 ± 0.01 mL/cm^3 per min in data set [8] (Insular cortex); 0.14 ± 0.03 mL/cm^3 per min in data set [8] (Mean ± SD over brain regions); 0.13 ± 0.02 mL/cm^3 per min in data set [8] (Nucleus accumbens). Also, the K1 in [8] (Occipital cortex) was found to be 0.19 ± 0.03 mL/cm^3 per min; in [8] (Putamen), 0.17 ± 0.03 mL/cm^3 per min; in [8] (Temporal cortex), 0.14 ± 0.02 mL/cm^3 per min; in [8] (Thalamus), 0.14 ± 0.03 mL/cm^3 per min. In addition, the “VT (baseline)” value in data set [8] (Amygdala) is 15.6 ± 8.2 mL/cm^3; in data set [8] (Brainstem) it was 21.0 ± 4.9 mL/cm^3; in [8] (Frontal cortex), 49.0 ± 18.2 mL/cm^3; in [8] (Hippocampus), 31.4 ± 16.6 mL/cm^3; in data set [8] (Insular cortex), 57.8 ± 26.9 mL/cm^3; in data set [8] (Nucleus accumbens), 34.1 ± 4.8 mL/cm^3. The results for the “VT (baseline)” value in data set [8] (Occipital cortex) and in data set [8] (Temporal cortex) were 47.0 ± 16.6 mL/cm^3 and 51.4 ± 26.2 mL/cm^3, respectively. Further, the “SUV (brain tracer uptake)” value in data set [8] (baseline scan, end of scan, frontal cortex and putamen) is on record as “about 4”. For the same compound, in [9] (octanol / 1x PBS, pH 7.4), the logD was 1.1. Further, the logP in data set [9] stood at 1.1.

As to `O=C1C[C@H](c2cc(F)c(F)c(F)c2)CN1Cc1ccncc1[18F]` [[^18F]UCB-H], in data set [10], the “parent fraction in plasma” value is listed as 30 ± 3%. Further, the “effective dose (ED)” value in [11] is 15.4 µSv/MBq. In data set [5], this compound displayed a fraction unbound at 5 min of 0.43. Also, the VND in data set [12] is 7.89 mL/cm^3. Further, in [13], the “brain tissue free fraction fND” value is reported as 6.1%. Besides, the log partition coefficient (logP) in [9] amounted to 2.31.
